Measured values reported in ChEMBL document CHEMBL1201862, “PubChem BioAssay data set” (2004).
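How tested: cells in 96-well plates exposed to compound for 48 hours at five concentrations. The concentration for 50% growth inhibition is given as GI50.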 The source made the active and inactive calls. No stated cut-off is given here; in the data, active = GI50 up to about 1.1 µM and inactive = higher.

Key:
Test in all cases: inhibition of tumour cell growth, NCI panel, 48 h
[1] = tested on: LXFL 529
[2] = tested on: DLD-1
[3] = tested on: HOP-18
[4] = tested on: DMS-273
[5] = tested on: XF498
[6] = tested on: M19-MEL
[7] = tested on: RXF 631
[8] = tested on: MDA-MB-231
[9] = tested on: BT-549

| Structure (SMILES) | GI50 [1] | GI50 [2] | GI50 [3] | GI50 [4] | GI50 [5] | GI50 [6] | GI50 [7] | GI50 [8] | GI50 [9] |
| --- | --- | --- | --- | --- | --- | --- | --- | --- | --- |
| Cc1ccc2c(CC(=O)O)cc(=O)oc2c1 | > 100 µM (inactive) | > 100 µM (inactive) | > 100 µM (inactive) | 37.2 µM (inactive) | 2.86 µM (inactive) | > 100 µM (inactive) |  |  |  |
| NNC(=O)N/N=C1\C(=O)N(c2nccs2)C(=O)C(=O)C1c1nc2ccccc2s1 (stereo not given) | > 100 µM (inactive) | > 100 µM (inactive) | 7.19 µM (inactive) | > 100 µM (inactive) | > 100 µM (inactive) | > 100 µM (inactive) | > 100 µM (inactive) |  |  |
| COC(=O)C1=CC2OC1(C)CCC2=O (stereo not given) | > 100 µM (inactive) | 80.5 µM (inactive) |  | > 100 µM (inactive) | > 100 µM (inactive) |  |  |  |  |
| Cc1ccc(/C=C/C(=O)C(C)(C)CN2CCCCC2)cc1 | 6.62 µM (inactive) |  |  | 3.02 µM (inactive) | 11.7 µM (inactive) | 11.8 µM (inactive) | 14.5 µM (inactive) |  |  |
| CC(/C=C/c1ccccc1)=N\N=C(C)\C=C\c1ccccc1 | > 100 µM (inactive) | > 100 µM (inactive) |  | > 100 µM (inactive) | > 100 µM (inactive) | > 100 µM (inactive) |  |  |  |
| COc1ccc(NC(=O)C(=O)Cc2ccc([N+](=O)[O-])c([N+](=O)[O-])c2CC(=O)C(=O)Nc2ccc(OC)cc2OC)c(OC)c1 | > 100 µM (inactive) | > 100 µM (inactive) | > 100 µM (inactive) | > 100 µM (inactive) |  | 95.9 µM (inactive) | > 100 µM (inactive) |  |  |
| CC(=O)N(C)c1ccc2ncccc2c1[N+](=O)[O-] | > 100 µM (inactive) | > 100 µM (inactive) | > 100 µM (inactive) | > 100 µM (inactive) | > 100 µM (inactive) | > 100 µM (inactive) |  |  |  |
| O=C(O/C(=C(/N=N/c1ccccc1)c1ccccc1)c1ccccc1)c1ccccc1 | > 100 µM (inactive) | 89.1 µM (inactive) | > 100 µM (inactive) |  | > 100 µM (inactive) |  | 16.7 µM (inactive) |  |  |
| ClC[Si]12OCCN(CCO1)CCO2 | > 100 µM (inactive) | > 100 µM (inactive) | > 100 µM (inactive) | > 100 µM (inactive) |  |  | > 100 µM (inactive) |  |  |
| Cn1c(=O)nc2n(-c3cc(Cl)ccc3Cl)c3ccccc3nc-2c1=O | 13.8 µM (inactive) | 1.53 µM (inactive) | 12.4 µM (inactive) | 3.67 µM (inactive) | 7.76 µM (inactive) | 1.35 µM (inactive) |  |  |  |
| C=CC/N=C1/N=C(CC(=O)OCC)CS1 | > 100 µM (inactive) | > 100 µM (inactive) | > 100 µM (inactive) | > 100 µM (inactive) | > 100 µM (inactive) | > 100 µM (inactive) |  |  |  |
| CCC1C2C=CC(CC2)N1S(=O)(=O)c1ccc(C)cc1 (stereo not given) | 17.3 µM (inactive) |  |  | 18.2 µM (inactive) |  | 31.4 µM (inactive) | 27.4 µM (inactive) |  |  |
| BrC(Br)=C1C(=C(Br)Br)C(Br)C1Br (stereo not given) | 0.439 µM (active) | 0.573 µM (active) | 2.91 µM (inactive) | 0.126 µM (active) |  | 0.63 µM (active) |  | 1.12 µM (inactive) | 0.327 µM (active) |
| c1ccc(N2CCN(CCCN3CCc4c([nH]c5ccccc45)C3c3cccnc3)CC2)cc1 (stereo not given) | > 74.5 µM (inactive) | 72.8 µM (inactive) | > 100 µM (inactive) | > 47 µM (inactive) | 5.04 µM (inactive) | > 92 µM (inactive) | > 55.7 µM (inactive) |  |  |
| CN1CCC(O)C(CNC23CC4CC(CC(C4)C2)C3)C1 (stereo not given) | > 100 µM (inactive) | > 100 µM (inactive) |  | > 100 µM (inactive) | > 100 µM (inactive) | > 100 µM (inactive) | > 100 µM (inactive) |  |  |
